According to patent US8546420B2, “4, 5-ring annulated indole derivatives for treating or preventing of HCV and related viral infections” (Merck Sharp & Dohme Corp., priority 2006, dated 2013):

Tests used:
HCV NS5B polymerase = biological target: T1, HCV NS5B polymerase (Hepatitis C virus genotype 1b, UniProt P26663); experiment: HCV NS5B Polymerase Inhibition Assay; assay type: biochemical
T1 construct: A soluble C-terminal 21-amino acid truncated NS5B enzyme form; polyhistidine (C); made in house; host or cells: Escherichia coli
Source text: A chemically synthesized 75-mer version, designated DCoH75, whose sequence matches the 3′-end of D-RNA, and DCoH75ddC, where the 3′-terminal cytidine of DCoH75 is replaced by dideoxycytidine, were used for assaying the NS5B enzyme activity as described in Ferrari et al., 12th International Symposium on HCV and Related Viruses, P-306 (2005). A soluble C-terminal 21-amino acid truncated NS5B enzyme form (NS5B[…]CT21) was produced and purified from Escherichia coli as C-terminal polyhistidine-tagged fusion protein as described in Ferrari et al., J. Virol. 73:1649-1654 (1999). A typical assay contained 20 mM Hepes pH 7.3, 10 mM MgCl2, 60 mM NaCl, 100 μg/ml BSA, 20 units/ml RNasin, 7.5 mM DTT, 0.1 μM ATP/GTP/UTP, 0.026 μM CTP, 0.25 mM GAU, 0.03 μM RNA template, 20 μCi/ml [^33P]-CTP, 2% DMSO, and 30 or 150 nM NS5B enzyme. Reactions were incubated at 22° C. for 2 hours, then stopped by adding 150 mM EDTA, washed in DE81 filter plate in 0.5M di-basic sodium phosphate buffer, pH 7.0, and counted using Packard TopCount after the addition of scintillation cocktail. Polynucleotide synthesis was monitored by the incorporation of radiolabeled CTP. The effect of the Compounds of Formula (I) on the polymerase activity was evaluated by adding various concentrations of a Compound of Formula (I), typically in 10 serial 2-fold dilutions, to the assay mixture. The starting concentrations of the indole derivatives ranged from 200 μM to 1 μM. An IC50 value for the inhibitor, defined as the compound concentration that provides 50% inhibition of polymerase activity, was determined by fitting the cpm data to the Hill equation Y=100/(1+10^((Log IC50−X)*HillSlope)), where X is the logarithm of compound concentration, and Y is the % inhibition. Ferrari et al., 12th International Symposium on HCV and Related Viruses, P-306 (2005) described in detail this assay procedure. It should be noted that such an assay as described is exemplary and not intended to limit the scope of the invention. The skilled practitioner can appreciate that modifications including but not limited to RNA template, primer, nucleotides, NS5B polymerase form, buffer composition, can be made to develop similar assays that yield the same result for the efficacy of the compounds and compositions described in the invention.
NS5B polymerase inhibition data for selected Compounds of Formula (I) is provided below in Table 2, wherein the compound numbers correspond to the compound numbering set forth in the above specification.

HCV replicon cells = experiment: Cell-Based HCV Replicon Assay; conditions: Hepatitis C virus, 72 h; replicon RNA level by real time PCR (Taqman), cells harvested on day 3
Protocol: To measure cell-based anti-HCV activity of the a Compound of Formula (I), replicon cells were seeded at 5000 cells/well in 96-well collagen I-coated Nunc plates in the presence of the Compound of Formula (I). Various concentrations of a Compound of Formula (I), typically in 10 serial 2-fold dilutions, were added to the assay mixture, the starting concentration of the compound ranging from 250 μM to 1 μM. The final concentration of DMSO was 0.5%, fetal bovine serum was 5%, in the assay media. Cells were harvested on day 3 by the addition of 1× cell lysis buffer (Ambion cat #8721). The replicon RNA level was measured using real time PCR (Taqman assay). The amplicon was located in 5B. The PCR primers were: 5B.2F, ATGGACAGGCGCCCTGA; 5B.2R, […]; the probe sequence was FAM-labeled CACGCCATGCGCTGCGG. GAPDH RNA was used as endogenous control and was amplified in the same reaction as NS5B (multiplex PCR) using primers and VIC-labeled probe recommended by the manufacturer (PE Applied Biosystem). The real-time RT-PCR reactions were run on ABI PRISM 7900HT Sequence Detection System using the following program: 48° C. for 30 min, 95° C. for 10 min, 40 cycles of 95° C. for 15 sec, 60° C. for 1 min. The ACT values (CT5B-CTGAPDH) were plotted against the concentration of test compound and fitted to the sigmoid dose-response model using XLfit4 (MDL). EC50 was defined as the concentration of inhibitor necessary to achieve ΔCT=1 over the projected baseline; EC90 the concentration necessary to achieve […] over the baseline. Alternatively, to quantitate the absolute amount of replicon RNA, a standard curve was established by including serially diluted T7 transcripts of replicon RNA in the Taqman assay. All Taqman reagents were from PE Applied Biosystems. Such an assay procedure was described in detail in e.g. Malcolm et al., Antimicrobial Agents and Chemotherapy 50: 1013-1020 (2006).
HCV Replicon assay data for selected Compounds of Formula (I) is provided below in Table 3, wherein the compound numbers correspond to the compound numbering set forth in the above specification. The data is designated as follows: “A” for EC50 values less than 1.0 micromolar (μM), “B” for EC50 values between 1.0 and 10.0 μM and “C” for EC50 values greater than 10.0 μM.

T1 sequence (P26663 2420-2989): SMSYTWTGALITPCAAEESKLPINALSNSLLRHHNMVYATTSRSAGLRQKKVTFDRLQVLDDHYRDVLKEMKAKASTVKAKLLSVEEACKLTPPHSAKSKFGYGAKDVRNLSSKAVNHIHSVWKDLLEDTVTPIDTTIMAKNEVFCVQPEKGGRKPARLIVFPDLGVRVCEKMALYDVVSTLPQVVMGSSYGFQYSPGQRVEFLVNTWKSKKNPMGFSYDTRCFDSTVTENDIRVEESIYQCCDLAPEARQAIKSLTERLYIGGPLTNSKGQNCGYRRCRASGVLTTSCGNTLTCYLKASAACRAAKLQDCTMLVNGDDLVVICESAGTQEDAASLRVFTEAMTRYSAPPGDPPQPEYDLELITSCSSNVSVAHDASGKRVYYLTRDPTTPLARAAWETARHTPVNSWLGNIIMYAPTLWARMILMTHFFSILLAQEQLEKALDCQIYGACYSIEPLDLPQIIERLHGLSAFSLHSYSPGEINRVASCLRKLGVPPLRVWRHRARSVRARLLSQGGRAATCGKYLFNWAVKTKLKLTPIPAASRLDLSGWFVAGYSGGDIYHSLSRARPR

Compound: CS(=O)(=O)NC(=O)c1cccc(Cn2c(C(=O)NS(C)(=O)=O)c(-c3ccc[nH]c3=O)c3c4ccccc4ccc32)c1 [Compound 9]
- IC50 (HCV NS5B polymerase): 25 to 100 nM

Compound: O=C(O)c1c(-c2ccc[nH]c2=O)c2c3ccccc3c(F)cc2n1Cc1cc([N+](=O)[O-])ccc1F [Compound 27]
- IC50 (HCV NS5B polymerase): 25 to 100 nM
- EC50 (HCV replicon cells): < 1 µM

Compound: O=C(O)c1cccc(Cn2c(C(=O)O)c(-c3ccc[nH]c3=O)c3c4ccccc4ccc32)c1 [Compound 8]
- IC50 (HCV NS5B polymerase): > 100 nM

Compound: O=C(NS(=O)(=O)C1CC1)c1c(-c2ccc[nH]c2=O)c2c3c(ccc2n1Cc1cc(F)ccc1F)CCCO3 [Compound 32]
- IC50 (HCV NS5B polymerase): < 25 nM
- EC50 (HCV replicon cells): < 1 µM

Compound: O=C(O)c1c(-c2ccc[nH]c2=O)c2c3c(ccc2n1Cc1cc(F)ccc1F)OCCO3 [Compound 26]
- IC50 (HCV NS5B polymerase): < 25 nM
- EC50 (HCV replicon cells): < 1 µM

Compound: COC(=O)c1cccc(Cn2c(C(=O)NS(C)(=O)=O)c(-c3ccc[nH]c3=O)c3c4ccccc4ccc32)c1 [Compound 10]
- IC50 (HCV NS5B polymerase): < 25 nM
- EC50 (HCV replicon cells): 1 to 10 µM

Compound: O=C(O)c1c(-c2ccc[nH]c2=O)c2c3ncccc3ccc2n1Cc1ccccc1F [Compound 18]
- IC50 (HCV NS5B polymerase): > 100 nM
- EC50 (HCV replicon cells): 1 to 10 µM

Compound: Nc1cc(Cn2c(C(=O)NS(=O)(=O)c3ccc(O)cc3)c(-c3ccc[nH]c3=O)c3c4ccccc4ccc32)ccn1 [Compound 15]
- IC50 (HCV NS5B polymerase): 25 to 100 nM
- EC50 (HCV replicon cells): 1 to 10 µM

Compound: CS(=O)(=O)NC(=O)c1c(-c2ccc[nH]c2=O)c2c3ccccc3ccc2n1Cc1ccnc(N)c1 [Compound 6]
- IC50 (HCV NS5B polymerase): 25 to 100 nM
- EC50 (HCV replicon cells): > 10 µM

Compound: CS(=O)(=O)NC(=O)c1c(-c2ccc[nH]c2=O)c2c3c(ccc2n1Cc1cc(F)ccc1F)OCCO3 [Compound 20]
- IC50 (HCV NS5B polymerase): < 25 nM
- EC50 (HCV replicon cells): < 1 µM

Compound: O=C(NS(=O)(=O)C1CC1)c1c(-c2ccc[nH]c2=O)c2c3ccccc3c(F)cc2n1Cc1ccccc1F [Compound 31]
- IC50 (HCV NS5B polymerase): < 25 nM
- EC50 (HCV replicon cells): < 1 µM

Compound: CS(=O)(=O)NC(=O)c1c(-c2ccc[nH]c2=O)c2c3ccccc3ccc2n1Cc1cccc(C(=O)O)c1 [Compound 12]
- IC50 (HCV NS5B polymerase): < 25 nM
- EC50 (HCV replicon cells): > 10 µM

Compound: CS(=O)(=O)NC(=O)c1c(-c2ccc[nH]c2=O)c2c3c(ccc2n1Cc1cc(F)ccc1F)CCCO3 [Compound 29]
- IC50 (HCV NS5B polymerase): < 25 nM
- EC50 (HCV replicon cells): < 1 µM

Compound: O=C(O)c1c(-c2ccc[nH]c2=O)c2c3ccccc3c(F)cc2n1Cc1ccccc1F [Compound 24]
- IC50 (HCV NS5B polymerase): 25 to 100 nM
- EC50 (HCV replicon cells): 1 to 10 µM

Compound: O=C(O)c1c(-c2ccc[nH]c2=O)c2c3ncccc3ccc2n1Cc1cc(F)ccc1F [Compound 17]
- IC50 (HCV NS5B polymerase): 25 to 100 nM
- EC50 (HCV replicon cells): 1 to 10 µM

Compound: O=C(NS(=O)(=O)C1CC1)c1c(-c2ccc[nH]c2=O)c2c3c(ccc2n1Cc1ccccc1F)CCCO3 [Compound 30]
- IC50 (HCV NS5B polymerase): < 25 nM
- EC50 (HCV replicon cells): < 1 µM

Compound: Nc1cc(Cn2c(C(=O)O)c(-c3ccccc3F)c3c4ccccc4ccc32)ccn1 [Compound 3]
- IC50 (HCV NS5B polymerase): > 100 nM
- EC50 (HCV replicon cells): 1 to 10 µM

Compound: CCS(=O)(=O)NC(=O)c1c(-c2ccc[nH]c2=O)c2c3ccccc3ccc2n1Cc1ccnc(N)c1 [Compound 14]
- IC50 (HCV NS5B polymerase): 25 to 100 nM
- EC50 (HCV replicon cells): 1 to 10 µM

Compound: O=C(O)c1c(-c2ccc[nH]c2=O)c2c3ncccc3ccc2n1Cc1ccc(F)cc1F [Compound 19]
- IC50 (HCV NS5B polymerase): > 100 nM

Compound: O=C(O)c1cccc(Cn2c(C(=O)O)c(-c3ccccc3F)c3c4ccccc4ccc32)c1 [Compound 7]
- IC50 (HCV NS5B polymerase): > 100 nM
- EC50 (HCV replicon cells): > 10 µM

Compound: O=C(O)c1c(-c2ccc[nH]c2=O)c2c3c(ccc2n1Cc1cc(F)ccc1F)CCCO3 [Compound 25]
- IC50 (HCV NS5B polymerase): < 25 nM
- EC50 (HCV replicon cells): < 1 µM

Compound: Nc1ccccc1Cn1c(C(=O)O)c(-c2ccccc2F)c2c3ccccc3ccc21 [Compound 1]
- IC50 (HCV NS5B polymerase): > 100 nM
- EC50 (HCV replicon cells): > 10 µM

Compound: Nc1cc(Cn2c(C(=O)NS(=O)(=O)c3ccccc3)c(-c3ccc[nH]c3=O)c3c4ccccc4ccc32)ccn1 [Compound 11]
- IC50 (HCV NS5B polymerase): 25 to 100 nM
- EC50 (HCV replicon cells): 1 to 10 µM

Compound: O=C(O)c1c(-c2ccc[nH]c2=O)c2c3c(ccc2n1Cc1ccccc1F)OCCO3 [Compound 23]
- IC50 (HCV NS5B polymerase): < 25 nM
- EC50 (HCV replicon cells): 1 to 10 µM

Compound: Nc1cc(Cn2c(C(=O)O)c(-c3ccc[nH]c3=O)c3c4ccccc4ccc32)ccn1 [Compound 4]
- IC50 (HCV NS5B polymerase): > 100 nM
- EC50 (HCV replicon cells): 1 to 10 µM

Compound: O=C(NS(=O)(=O)C1CC1)c1c(-c2ccc[nH]c2=O)c2c3ccccc3c(F)cc2n1Cc1cc([N+](=O)[O-])ccc1F [Compound 33]
- IC50 (HCV NS5B polymerase): < 25 nM
- EC50 (HCV replicon cells): < 1 µM

Compound: O=C(O)c1c(-c2ccccc2F)c2c3ccccc3ccc2n1Cc1ccccc1 [Compound 2]
- IC50 (HCV NS5B polymerase): > 100 nM

Compound: O=C(O)c1c(-c2ccc[nH]c2=O)c2c3c(ccc2n1Cc1ccccc1F)CCCO3 [Compound 22]
- IC50 (HCV NS5B polymerase): < 25 nM
- EC50 (HCV replicon cells): < 1 µM

Compound: CS(=O)(=O)Nc1cccc(S(=O)(=O)NC(=O)c2c(-c3ccc[nH]c3=O)c3c4ccccc4ccc3n2Cc2ccc(F)cc2F)c1 [Compound 16]
- IC50 (HCV NS5B polymerase): < 25 nM
- EC50 (HCV replicon cells): < 1 µM

Compound: CS(=O)(=O)NC(=O)c1c(-c2ccc[nH]c2=O)c2c3c(ccc2n1Cc1ccccc1F)CCCO3 [Compound 21]
- IC50 (HCV NS5B polymerase): < 25 nM
- EC50 (HCV replicon cells): < 1 µM

Compound: CS(=O)(=O)NC(=O)c1c(-c2ccc[nH]c2=O)c2c3c(ccc2n1Cc1ccccc1F)OCCO3 [Compound 28]
- IC50 (HCV NS5B polymerase): < 25 nM
- EC50 (HCV replicon cells): < 1 µM

Compound: Nc1cc(Cn2c(C(=O)O)c(-c3ccccc3F)c3c4ccccc4ccc32)ncn1 [Compound 5]
- IC50 (HCV NS5B polymerase): > 100 nM
- EC50 (HCV replicon cells): > 10 µM

Compound: CC(C)(C)S(=O)(=O)NC(=O)c1c(-c2ccc[nH]c2=O)c2c3ccccc3ccc2n1Cc1ccnc(N)c1 [Compound 13]
- IC50 (HCV NS5B polymerase): 25 to 100 nM
